# Measured values as given in US6969724B2, “Compounds” (SmithKline Beecham-SpA, priority 1998, dated 2005).
row,melting point,Compound
1,> 240 °C,Cl.c1ccc(C2CCN(CC3Cc4ccccc4C3)CC2)cc1
2,> 250 °C,Cl.c1ccc(C2CCN(C3Cc4ccccc4C3)CC2)cc1
3,> 250 °C,Cl.c1ccc(C2CCN(C3CCc4ccccc4CC3)CC2)cc1
4,> 250 °C,Cl.c1ccc(C2CCN(CC3CCc4ccccc4CC3)CC2)cc1
5,220 °C (dec.),Cl.O=C1CC(CN2CCC(c3ccccc3)CC2)CCc2ccccc21 (racemic)
6,213 to 215 °C,CO[C@@H]1C[C@H](CN2CCC(c3ccccc3)CC2)CCc2ccccc21.Cl (racemic)
7,220 to 222 °C,CO[C@@H]1C[C@@H](CN2CCC(c3ccccc3)CC2)CCc2ccccc21.Cl (racemic)
8,218 to 220 °C,Cl.OC1CC(CN2CCC(c3ccccc3)CC2)CCc2c(F)cccc21 (racemic)
9,245 to 246 °C,Cl.O[C@@H]1C[C@H](CN2CCC(c3ccccc3)CC2)CCc2c(-c3ccccc3)cccc21 (racemic)
10,220 to 224 °C,Cl.O[C@@H]1C[C@H](CN2CCC(c3ccccc3)CC2)CCc2c(Br)cccc21 (racemic)
11,190 to 193 °C,Cl.Oc1cccc2c1CC[C@@H](CN1CCC(c3ccccc3)CC1)C[C@H]2O (racemic)
12,176 to 189 °C,COc1cccc2c1C(O)CC(CN1CCC(c3ccccc3)CC1)CC2.Cl (racemic)
13,180 to 185 °C,Cl.O=C1CC(CN2CCC(c3ccccc3)CC2)CCc2ccc(Cl)cc21 (racemic)
14,216 to 218 °C,Cl.O=C1CC(CN2CCC(c3ccccc3O)CC2)CCc2ccccc21 (racemic)
15,> 250 °C,C1=CC(CN2CCC(c3ccccc3)CC2)CCc2ccccc21.Cl (racemic)
16,126 to 128 °C,C=CCO[C@@H]1C[C@H](CN2CCC(c3ccccc3)CC2)CCc2ccccc21.Cl (racemic)
17,> 250 °C,Cl.O[C@@H]1C[C@@H](CN2CCC(c3ccccc3)CC2)CCc2ccccc21 (racemic)
18,239 to 240 °C,C1=CC(CN2CCC(c3ccccc3)CC2)Cc2ccccc21.Cl (racemic)
19,48 to 50 °C,"O[C@@H]1C[C@H](CN2CCC(c3ccccc3)CC2)CCc2ccccc21 (racemic) [Example 9, (±)-cis-7-[(4-Phenylpiperidin-1-yl)methyl]-6,7,8,9-tetrahydro-5H-benzocyclohepten-5-ol]"

# More lines, now with the values behind:
row,Compound,melting point
1,Cc1ccccc1C1CCN(CC2CCc3ccccc3CC2)CC1.Cl,245 °C
2,COc1cccc2c1CCC(CN1CCC(c3ccccc3)CC1)CC2=O.Cl (racemic),140 to 143 °C
3,COc1ccc2c(c1)C(=O)CC(CN1CCC(c3ccccc3)CC1)CC2.Cl (racemic),185 to 188 °C
4,Cl.Oc1ccccc1C1CCN(CC2CCc3ccccc3C(O)C2)CC1 (racemic),158 to 160 °C
5,Cl.O[C@@H]1C[C@H](CN2CCC(c3cccc(F)c3)CC2)CCc2ccccc21 (racemic),238 to 240 °C
6,Cc1ccccc1C1CCN(C[C@@H]2CCc3ccccc3[C@H](O)C2)CC1.Cl (racemic),> 250 °C
7,Cl.O[C@@H]1C[C@H](CN2CCC(c3ccc(OCc4ccccc4)cc3)CC2)CCc2ccccc21 (racemic),225 to 228 °C
8,Cl.O[C@@H]1C[C@H](CN2CCC(c3cccc(Br)c3)CC2)CCc2ccccc21 (racemic),> 250 °C
9,Cl.OC1CC(CN2CCC(c3ccc(F)cc3)CC2)CCc2ccccc21 (racemic),227 to 229 °C
10,COc1cc(OC)cc(C2CCN(CC3CCc4ccccc4C(O)C3)CC2)c1.Cl (racemic),223 to 225 °C
11,Cl.OC1CC(CN2CCC(c3ccccc3Cl)CC2)CCc2ccccc21 (racemic),239 to 240 °C
12,Cl.OC1CC(CN2CCC(c3ccccc3)CC2)CCc2c(OCc3ccccc3)cccc21 (racemic),198 to 202 °C
13,Cc1cccc2c1CC[C@@H](CN1CCC(c3cccc(F)c3)CC1)C[C@H]2O.Cl (racemic),241 to 243 °C
14,Cc1cc(C)c2c(c1)C(=O)CC(CN1CCC(c3ccccc3)CC1)CC2.Cl (racemic),222 to 225 °C
15,COc1ccccc1C1CCN(CC2CCc3ccccc3C(=O)C2)CC1.Cl (racemic),232 to 234 °C
16,COc1cccc2c1CC[C@@H](CN1CCC(c3ccccc3)CC1)C[C@H]2O.Cl (racemic),229 to 231 °C
17,COc1cccc2c1CC[C@H](CN1CCC(c3ccccc3)CC1)C[C@H]2O.Cl (racemic),> 250 °C
18,"COc1cccc2c1CCC(CN1CCC(c3ccccc3)CC1)CC2O (racemic) [Example 10, (±)-1-Methoxy-7-[(4-phenylpiperidin-1-yl)methyl]-6,7,8,9-tetrahydro-5H-benzocyclohepten-5-ol]",46 to 48 °C
19,"COc1ccc2c(c1)C(O)CC(CN1CCC(c3ccccc3)CC1)CC2 (racemic) [Example 11, (±)-3-Methoxy-7-[(4-phenylpiperidin-1-yl)methyl]-6,7,8,9-tetrahydro-5H-benzocyclohepten-5-ol]",45 to 48 °C
20,"Cc1cc(C)c2c(c1)C(O)CC(CN1CCC(c3ccccc3)CC1)CC2 (racemic) [Example 20, (±)-1,3-dimethyl-7-[(4-phenylpiperidin-1-yl)methyl]-6,7,8,9-tetrahydro-5H-benzocyclohepten-5-ol]",52 to 55 °C
21,"COc1ccccc1C1CCN(C[C@@H]2CCc3ccccc3[C@H](O)C2)CC1 (racemic) [Example 21, (±)-cis-7-[[4-(2-methoxyphenyl)piperidin-1-yl]methyl]-6,7,8,9-tetrahydro-5H-benzocyclohepten-5-ol]",72 to 74 °C
22,"Cc1cccc2c1CC[C@@H](CN1CCC(c3ccccc3)CC1)C[C@H]2O (racemic) [Example 27, (±)-cis-1-methyl-7-[(4-phenylpiperidin-1-yl)methyl]-6,7,8,9-tetrahydro-5H-benzocyclohepten-5-ol]",52 to 55 °C
